According to PMC11589570, “Critical assessment of LC3/GABARAP ligands used for degrader development and ligandability of LC3/GABARAP binding pockets” (Nature Communications, 2024):
Where “and” joins values, the source holds several entries; their conditions need not be identical. Equal entries are not always repeated.

Legend:
GABARAPL1 = GABARAPL1 (Homo sapiens, UniProt Q9H0R8); assay: FP assay with Cy5-labelled p62 LIR tracer (protein titration and tracer displacement); assay type: binding; conditions: for compound titration GABARAPL1 (displacement curve, FP signal): two replicate columns per compound; for FP tracer displacement curve signal (compound titration): duplicate values
RPE1 cells = assay: Cell growth assay (IncuCyte confluence over 72 h); assay type: cell-based
Outline: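 Phase confluence (% area covered by cells) imaged every 2 h for 72 h after compound addition; cells in DMEM/10% FBS, seeded 24 h before treatment. Controls were 0.1% DMSO, 250 nM Torin1 and 200 ng/mL Bafilomycin (final). Each point averages three wells.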

GABARAPL2 = GABARAPL2 (Homo sapiens, UniProt P60520); assay: FP assay with Cy5-labelled p62 LIR tracer (protein titration and tracer displacement); conditions: for normalized FP signal, p62 LIR tracer displacement: GABARAPL2
[1] = log10 concentration [M] -3.82391
[2] = log10 concentration [M] -4.1549
[3] = log10 concentration [M] -4.60206
[4] = log10 concentration [M] -5.69897
[5] = log10 concentration [M] -6.22185
[6] = log10 concentration [M] -6.69897
[7] = log10 concentration [M] -7.30103
[8] = log10 concentration [M] -7.79588
[9] = log10 concentration [M] -8.08092

GABARAPL2, sequence (P60520 whole entry): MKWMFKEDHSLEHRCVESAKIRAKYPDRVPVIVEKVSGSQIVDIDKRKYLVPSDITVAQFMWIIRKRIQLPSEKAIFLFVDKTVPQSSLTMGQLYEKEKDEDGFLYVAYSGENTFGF
GABARAPL1, sequence (Q9H0R8 whole entry): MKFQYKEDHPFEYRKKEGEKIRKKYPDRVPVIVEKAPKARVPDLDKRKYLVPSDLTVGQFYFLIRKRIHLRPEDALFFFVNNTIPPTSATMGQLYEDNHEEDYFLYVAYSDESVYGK

## CO[C@@H]1[C@@H](OC(N)=O)[C@@H](O)[C@H](Oc2ccc3c(O)c(NC(=O)c4ccc(O)c(CC=C(C)C)c4)c(=O)oc3c2C)OC1(C)C [compound 12, Novobiocin]
GABARAPL1; [1]
  compound titration GABARAPL1 (displacement curve, FP signal): 56.4286 and 54
GABARAPL1; [2]
  compound titration GABARAPL1 (displacement curve, FP signal): 66.8571 and 68.4286
GABARAPL1; [3]
  compound titration GABARAPL1 (displacement curve, FP signal): 83.8571 and 84.7143
GABARAPL1; log10 concentration [M] -5
  compound titration GABARAPL1 (displacement curve, FP signal): 91.2857 and 89.4286
GABARAPL1; [4]
  FP tracer displacement curve signal (compound titration): 90 and 96
GABARAPL1; [5]
  FP tracer displacement curve signal (compound titration): 93.7143 and 95.7143
GABARAPL1; [6]
  FP tracer displacement curve signal (compound titration): 100.143 and 97.8571
GABARAPL1; [7]
  FP tracer displacement curve signal (compound titration): 98.4286 and 98.8571
GABARAPL1; [8]
  FP tracer displacement curve signal (compound titration): 94.4286 and 92.2857
GABARAPL1; [9]
  FP tracer displacement curve signal (compound titration): 93.8571 and 98.4286
RPE1 cells; 100 nM, 0 h
  RPE1 cell growth: 25 and 15
RPE1 cells; 100 nM, 2 h
  RPE1 cell growth: 26 and 15 and 17
RPE1 cells; 100 nM, 4 h
  RPE1 cell growth: 29 and 17 and 18
RPE1 cells; 100 nM, 6 h
  RPE1 cell growth: 30 and 18
RPE1 cells; 100 nM, 8 h
  RPE1 cell growth: 33 and 18 and 20
RPE1 cells; 100 nM, 10 h
  RPE1 cell growth: 36 and 19 and 21
RPE1 cells; 500 nM, 0 h
  RPE1 cell growth: 27 and 16 and 18
RPE1 cells; 500 nM, 2 h
  RPE1 cell growth: 32 and 16 and 20
RPE1 cells; 500 nM, 4 h
  RPE1 cell growth: 32 and 18 and 22
RPE1 cells; 500 nM, 6 h
  RPE1 cell growth: 35 and 18 and 22
RPE1 cells; 500 nM, 8 h
  RPE1 cell growth: 38 and 20 and 23
RPE1 cells; 500 nM, 10 h
  RPE1 cell growth: 39 and 21
RPE1 cells; 1 uM, 0 h
  RPE1 cell growth: 18 and 23 and 20
RPE1 cells; 1 uM, 2 h
  RPE1 cell growth: 20 and 26 and 21
RPE1 cells; 1 uM, 4 h
  RPE1 cell growth: 22 and 28 and 21
RPE1 cells; 1 uM, 6 h
  RPE1 cell growth: 23 and 32
RPE1 cells; 1 uM, 8 h
  RPE1 cell growth: 26 and 35 and 25
RPE1 cells; 1 uM, 10 h
  RPE1 cell growth: 27
RPE1 cells; 3 uM, 0 h
  RPE1 cell growth: 27 and 19 and 22
RPE1 cells; 3 uM, 2 h
  RPE1 cell growth: 31 and 19 and 24
RPE1 cells; 3 uM, 4 h
  RPE1 cell growth: 33 and 20 and 27
RPE1 cells; 3 uM, 6 h
  RPE1 cell growth: 37 and 22 and 28
RPE1 cells; 3 uM, 8 h
  RPE1 cell growth: 41 and 24 and 30
RPE1 cells; 3 uM, 10 h
  RPE1 cell growth: 40 and 26 and 31
RPE1 cells; 5 uM, 0 h
  RPE1 cell growth: 24 and 20
RPE1 cells; 5 uM, 2 h
  RPE1 cell growth: 28 and 22 and 24
RPE1 cells; 5 uM, 4 h
  RPE1 cell growth: 31 and 22 and 26
RPE1 cells; 5 uM, 6 h
  RPE1 cell growth: 34 and 23 and 27
RPE1 cells; 5 uM, 8 h
  RPE1 cell growth: 36 and 26 and 28
RPE1 cells; 5 uM, 10 h
  RPE1 cell growth: 35 and 26 and 30
RPE1 cells; 10 uM, 0 h
  RPE1 cell growth: 22 and 24 and 16
RPE1 cells; 10 uM, 2 h
  RPE1 cell growth: 24 and 19
RPE1 cells; 10 uM, 4 h
  RPE1 cell growth: 26 and 24 and 20
RPE1 cells; 10 uM, 6 h
  RPE1 cell growth: 29 and 25 and 23
RPE1 cells; 10 uM, 8 h
  RPE1 cell growth: 32 and 28 and 23
RPE1 cells; 10 uM, 10 h
  RPE1 cell growth: 32 and 28 and 26
GABARAPL2
  Ki: 681 µM
GABARAPL2; [1]
  normalized FP signal, p62 LIR tracer displacement: 88.8 and 79.6
GABARAPL2; [2]
  normalized FP signal, p62 LIR tracer displacement: 90.4 and 93.6
GABARAPL2; [3]
  normalized FP signal, p62 LIR tracer displacement: 94.8 and 107.2
GABARAPL2; log10 concentration [M] -5
  normalized FP signal, p62 LIR tracer displacement: 97.2 and 105.2
GABARAPL2; log10 concentration [M] -5.30103
  normalized FP signal, p62 LIR tracer displacement: 95.6 and 104.8
GABARAPL2; [4]
  normalized FP signal, p62 LIR tracer displacement: 86.4 and 89.6
GABARAPL2; [5]
  normalized FP signal, p62 LIR tracer displacement: 100.4 and 99.2
GABARAPL2; [6]
  normalized FP signal, p62 LIR tracer displacement: 102 and 95.6
GABARAPL2; [7]
  normalized FP signal, p62 LIR tracer displacement: 100.8 and 96.8
GABARAPL2; [8]
  normalized FP signal, p62 LIR tracer displacement: 100 and 94.8
GABARAPL2; [9]
  normalized FP signal, p62 LIR tracer displacement: 102.4 and 106.8
